Consider nine molecules from ChEMBL document CHEMBL1201862, “PubChem BioAssay data set” (2004).

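Results reflect a 48-hour exposure of cells in 96-well plates to compound at five concentrations. GI50 marks 50% less growth.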 The source made the active and inactive calls. No stated cut-off is given here; in the data, active = GI50 up to about 1.1 µM and inactive = higher.

Assay in all cases: inhibition of tumour cell growth, NCI panel, 48 h
Assay [1] has as its system OVCAR-8.
The test system of assay [2] is M14.
Assay [3] concerns Hs-578T.
Assay [4] deals with SW-620.
The test system of assay [5] is SK-MEL-2.
Assay [6] has as its system SK-MEL-5.
The test system of assay [7] is BT-549.
In assay [8] the test system is SNB-19.
The subject of assay [9] is MDA-N.
Assay [10] relates to RXF 393.
Assay [11] deals with SN12C.
For assay [12], the system named is U-251.
The subject of assay [13] is HT-29.
Assay [14] has as its system IGROV-1.
The test system of assay [15] is NCI/ADR-RES.
Assay [16] deals with MOLT-4.
The test system of assay [17] is PC-3.
Assay [18] concerns HCC 2998.

For `CC(=O)Nc1ccc2cc(C)c(O)nc2n1`, the GI50 was > 100 µM (inactive) in [1]; > 100 µM (inactive) in [2]; 85.7 µM (inactive) in [3]; > 100 µM (inactive) in [4]; > 100 µM (inactive) in [5]; > 100 µM (inactive) in [6]. Also, the GI50 was > 100 µM (inactive) in assay [7]; > 100 µM (inactive) in [8]; > 100 µM (inactive) in assay [9]; 25.9 µM (inactive) in assay [10]; > 100 µM (inactive) in [11]; > 100 µM (inactive) in [12]. Further, the GI50 in assay [13] is > 100 µM (inactive); in assay [14], > 100 µM (inactive); in assay [15], 8.09 µM (inactive); in [16] it was > 100 µM (inactive); in assay [17], > 100 µM (inactive).
`O=C(O)C1CCCN1Cc1ccc2c(c1)OCO2` (stereo not given): the GI50 in assay [1], in assay [2], in assay [3], in [4], in assay [5] and in [6] was > 100 µM (inactive) each time. For the same molecule, the GI50 in assay [7], in [8], in assay [9], in assay [10], in [11] and in [12] was > 100 µM (inactive) throughout. The GI50 in assay [13], in [14], in assay [15], in assay [16] and in [17] was > 100 µM (inactive) in each case.
`CC(C)CCCC(C)[C@H]1CCC2[C@@H]3CCC4Cc5nc6c(nc5C[C@]4(C)C3CC[C@@]21C)CC1CC[C@@H]2C(CC[C@@]3(C)C2CC[C@@H]3C(C)CCCC(C)C)[C@@]1(C)C6` (stereo not given in full): the GI50 in [1], in [2], in assay [3], in assay [4], in assay [5] and in [6] was > 100 µM (inactive) in each case. Further, the GI50 in assay [7], in assay [8], in assay [9], in assay [10], in [11] and in assay [12] was > 100 µM (inactive) throughout. In addition, the GI50 in [13], in assay [14], in [15], in assay [16] and in [17] was > 100 µM (inactive) throughout.
As to `CCCOC(=O)C1C2CCC(O2)C1C(=O)O` (stereo not given), the GI50 in assay [1], in [2], in assay [3], in [4], in assay [5] and in assay [6] was > 100 µM (inactive) each time. Moreover, the GI50 in [7], in assay [8], in assay [9], in assay [10], in [11] and in assay [12] was > 100 µM (inactive) throughout. Moreover, the GI50 in assay [13], in assay [14], in assay [15], in assay [16] and in assay [17] was > 100 µM (inactive) in each case.
As to `O=S(=O)(O)c1cc(/N=N/c2c(O)ccc3ccccc23)ccc1/C=C/c1ccc(/N=N/c2c(O)ccc3ccccc23)cc1S(=O)(=O)O`, the GI50 in [1] was > 100 µM (inactive); in assay [2], 99.5 µM (inactive); in assay [3] it was > 100 µM (inactive); in assay [4], > 100 µM (inactive); in assay [5], > 100 µM (inactive); in assay [6], > 100 µM (inactive). Further, the GI50 in assay [7], in assay [8], in [9], in assay [10], in [11] and in assay [12] was > 100 µM (inactive) in each case. In addition, the GI50 in [13] was > 100 µM (inactive); in [14], 70.3 µM (inactive); in assay [15] it was > 100 µM (inactive); in [17], > 100 µM (inactive).
Turning to `Nc1nc(Br)nc2ncn(C3CC(O)C(CO)O3)c12` (stereo not given), the GI50 is 0.236 µM (active) in [1]; 3.05 µM (inactive) in assay [2]; > 100 µM (inactive) in assay [3]; > 24.8 µM (inactive) in assay [4]; > 100 µM (inactive) in assay [5]; 60 µM (inactive) in assay [6]. Besides, the GI50 in assay [18] was > 60.8 µM (inactive); in [7], 46 µM (inactive); in assay [8] it was 42.2 µM (inactive); in assay [9] it was > 68.7 µM (inactive); in assay [10], > 100 µM (inactive); in [11], 10 µM (inactive). In addition, the GI50 was > 53 µM (inactive) in assay [12]; 52.7 µM (inactive) in assay [13]; > 100 µM (inactive) in [14]; 0.0212 µM (active) in assay [16]; > 100 µM (inactive) in assay [17].
`C[C@@]1(CO)[C@H](O)CC[C@@]2(C)[C@H]1CC[C@H]1C[C@@H]3C[C@@]12CC[C@@]3(O)COC(=O)CN`: the GI50 in assay [2] was 5.15 µM (inactive); in assay [3] it was 53.1 µM (inactive); in assay [5], 64.9 µM (inactive); in [6], 11.2 µM (inactive); in assay [18] it was 4.23 µM (inactive); in assay [7] it was 42.3 µM (inactive). Moreover, the GI50 in assay [9] is 16.9 µM (inactive); in [12] it was 10.6 µM (inactive); in assay [13], 9.25 µM (inactive); in [16], 2.23 µM (inactive); in assay [17], 21.3 µM (inactive).
Regarding `N#C/N=C1/c2ccccc2/C(=N/C#N)c2cc(CO)ccc21`, the GI50 in assay [1] was 37.8 µM (inactive); in [2], 48.2 µM (inactive); in assay [3] it was 69.2 µM (inactive); in assay [4], 25.6 µM (inactive); in assay [5], 61.2 µM (inactive); in assay [6], 27 µM (inactive). In addition, the GI50 is 18 µM (inactive) in assay [7]; 51.8 µM (inactive) in assay [8]; 36.6 µM (inactive) in assay [9]; 27.6 µM (inactive) in [10]; 24.8 µM (inactive) in [11]; 34.4 µM (inactive) in [12]. In addition, the GI50 in assay [13] is 26.7 µM (inactive); in [14], 29.4 µM (inactive); in assay [15] it was 28.5 µM (inactive); in assay [16], 16.4 µM (inactive); in assay [17], 33.7 µM (inactive).
Consider `CN(C(=O)c1ccc(Cl)cc1)C(=S)N1CCN(c2ccccc2)CC1`, for which the GI50 in assay [1] is > 100 µM (inactive); in assay [2], > 100 µM (inactive); in assay [3], 19 µM (inactive); in [4], > 100 µM (inactive); in assay [5] it was > 100 µM (inactive); in assay [6], 35.5 µM (inactive). Moreover, the GI50 in assay [18], in assay [7], in assay [8], in assay [9], in assay [10] and in [11] was > 100 µM (inactive) in each case. For the same molecule, the GI50 is > 100 µM (inactive) in assay [12], 77.6 µM (inactive) in [13], > 100 µM (inactive) in assay [14] and 58.3 µM (inactive) in [16].
